Results reported in patent publication US9226506B2, “Methods of weed control in chicory” (Dow AgroSciences LLC, priority 2013, dated 2016).

Columns and labels:
Assay in all cases: Field trial, post-emergence weed control in chicory
Assay type in all cases: in vivo
[1] = tested on: Artemisia biennis (biennial wormwood), ARTRI; conditions: 3 trials, 30 days after last application
Experimental: (§1) Field trials were conducted in Northern France and Belgium, both of which are major areas for root chicory and whitloof chicory production. Trials were conducted in accordance with EPPO standard PP 1/99(3) entitled “Weeds in Roots Vegetables,” PP 1/152(4) entitled “Design and Analysis of Efficacy Evaluation Trials,” PP 1/135(3) entitled “Phytotoxic Assessment,” and PP 1/181(4) entitled “Conduct and Reporting of Efficacy Evaluation Trials Including Good Experimental Practice,” all of which are incorporated herein by reference in their entirety.
(§2) Application to all field trials was made using a small plot precision sprayer operating at between 160-400 kilopascals (kPa) pressure, delivering a spray volume of 150-400 liters per hectare (L/ha). Nozzles were of a flat fan type. Trial plot size ranged from 4.5×2.5 square meters (m^2) to 10.5×2.5 m^2. Plots were replicated 3 or 4 times and were arranged in a randomized block design within each trial. All trials received a pre-emergence application of BONALAN® at 6 L/ha (benfluralin; 180 grams active ingredient per liter (g ai/L); commercially available from Dow AgroSciences LLC) with incorporation to prevent the emergence of grasses which could complicate the assessment of broadleaf control.
(§3) In whitloof chicory (Cichorium intybus), treatments were evaluated which included either two or three post-emergence applications of herbicide. Multiple applications of herbicide were evaluated for their ability to control weed emergence during the extended period of time required for chicory cultivation. Trials included different combinations of application rate and application timing. Broadcast applications were made from May to July, covering a range of possible application timings. Penoxulam was applied at a maximum total rate of 15 g/ha per season, applied in two or three applications with a minimum of seven days between applications. Treatment with penoxsulam involved application of either BOA® or VIPER® (2.14% weight per weight (w/w) oil dispersions of penoxsulam commercially available from Dow AgroSciences LLC). Trials were also conducted using another ALS mode-of-action herbicide (i.e., the sulfonylurea triflusulfuron-methyl). Triflusulfuron-methyl was applied at a maximum total rate of 30 g/ha per season, applied in two or three applications with a minimum of seven days between applications. Treatment with triflusulfuron-methyl involved application of SAFARI® (triflusulfuron-methyl; commercially available from DuPont Crop Protection).
(§4) Prior to treatment application, assessments of weed populations (number of plants per m^2) were carried out using a quadrant square and an appropriate number of sampling points.
(§5) 1) Visual rating in percent of the overall volume reduction of vegetation for each species compared to the nearest untreated plot (Plant/Control/% visual; 0%=no control; 100%=all weeds dead). Assessments of this type were performed by Dow AgroSciences LLC in France.
(§6) Assessments of weed control were carried out at 14, 28, 56 and 84 days or longer after each application timing (DAAA=days after application A, DAAB=days after application B or DAAC=days after application C).

[2] = tested on: Capsella bursa-pastoris (shepherd's purse), CAPBP; conditions: 2 trials, 30 days after last application
Experimental: as §1, §2, §3, §4, §5, §6

[3] = tested on: Coronopus didymus (lesser swinecress), COPDI; conditions: 2 trials, 30 days after last application
Experimental: as §1, §2, §3, §4, §5, §6

[4] = tested on: Galinsoga ciliata (shaggy soldier) / Galinsoga parviflora (potato weed), GASCI-GASPA; conditions: 4 trials, 30 days after last application
Experimental: as §1, §2, §3, §4, §5, §6

[5] = tested on: Matricaria recutita (wild chamomile), MATCH; conditions: 2-3 trials (number of trials in parentheses in cell), 30 days after last application
Experimental: as §1, §2, §3, §4, §5, §6

[6] = tested on: Senecio vulgaris (common groundsel), SENVU; conditions: 1 trial, 30 days after last application
Experimental: as §1, §2, §3, §4, §5, §6

[7] = tested on: Solanum nigrum (black nightshade), SQLNI; conditions: 2 trials, 30 days after last application
Experimental: as §1, §2, §3, §4, §5, §6

[8] = tested on: Sonchus sp. (sow-thistle), SONSS; conditions: 1 trial, 30 days after last application
Experimental: as §1, §2, §3, §4, §5, §6

[9] = 3 applications 3.73/3.73/3.73 g ai/ha

Structure (SMILES): COc1cnc(OC)n2nc(NS(=O)(=O)c3c(OCC(F)F)cccc3C(F)(F)F)nc12 [Penoxsulam]
- % Visual Weed Control ([1]; 2 applications 5.6/5.6 g ai/ha): 64.4%
- % Visual Weed Control ([1]; 2 applications 7.5/7.5 g ai/ha): 68.3%
- % Visual Weed Control [1, 9]: 68.8%
- % Visual Weed Control ([1]; 3 applications 5/5/5 g ai/ha): 76.4%
- % Visual Weed Control ([2]; 2 applications 5.6/5.6 g ai/ha): 100%
- % Visual Weed Control ([2]; 2 applications 7.5/7.5 g ai/ha): 100%
- % Visual Weed Control [2, 9]: 100%
- % Visual Weed Control ([2]; 3 applications 5/5/5 g ai/ha): 100%
- % Visual Weed Control ([3]; 2 applications 5.6/5.6 g ai/ha): 92.4%
- % Visual Weed Control ([3]; 2 applications 7.5/7.5 g ai/ha): 96.25%
- % Visual Weed Control [3, 9]: 90.15%
- % Visual Weed Control ([3]; 3 applications 5/5/5 g ai/ha): 93.25%
- % Visual Weed Control ([4]; 2 applications 5.6/5.6 g ai/ha): 87.3%
- % Visual Weed Control ([4]; 2 applications 7.5/7.5 g ai/ha): 87.9%
- % Visual Weed Control [4, 9]: 95.9%
- % Visual Weed Control ([4]; 3 applications 5/5/5 g ai/ha): 96.7%
- % Visual Weed Control ([5]; 2 applications 5.6/5.6 g ai/ha): 93 (2) %
- % Visual Weed Control ([5]; 2 applications 7.5/7.5 g ai/ha): 93.9 (3) %
- % Visual Weed Control [5, 9]: 91.4 (2) %
- % Visual Weed Control ([5]; 3 applications 5/5/5 g ai/ha): 97.2 (3) %
- % Visual Weed Control ([6]; 2 applications 5.6/5.6 g ai/ha): 50%
- % Visual Weed Control ([6]; 2 applications 7.5/7.5 g ai/ha): 100%
- % Visual Weed Control [6, 9]: 60%
- % Visual Weed Control ([6]; 3 applications 5/5/5 g ai/ha): 100%
- % Visual Weed Control ([7]; 2 applications 5.6/5.6 g ai/ha): 66.5%
- % Visual Weed Control ([7]; 2 applications 7.5/7.5 g ai/ha): 100%
- % Visual Weed Control [7, 9]: 83.4%
- % Visual Weed Control ([7]; 3 applications 5/5/5 g ai/ha): 83.4%
- % Visual Weed Control ([8]; 2 applications 5.6/5.6 g ai/ha): 86%
- % Visual Weed Control ([8]; 2 applications 7.5/7.5 g ai/ha): 86%
- % Visual Weed Control [8, 9]: 86%
- % Visual Weed Control ([8]; 3 applications 5/5/5 g ai/ha): 86%
